Experimental findings from patent US20130225694A1, “COMPOSITIONS AND METHODS OF INHIBITING RETINAL DEGENERATION” (Oklahoma Medical Research Foundation, priority 2012, published 2013) are described below.

Each structure is given as a SMILES string. Read-outs that look alike come from different tables or passages of the source.

In one data set the target is T1, RPE65 isomerohydrolase (Bos taurus, UniProt Q28175).
T1 construct: Bovine RPE microsomes were used as a source of the RPE65 protein; from tissue; host or cells: bovine RPE microsomes
T1 sequence (Q28175 whole entry): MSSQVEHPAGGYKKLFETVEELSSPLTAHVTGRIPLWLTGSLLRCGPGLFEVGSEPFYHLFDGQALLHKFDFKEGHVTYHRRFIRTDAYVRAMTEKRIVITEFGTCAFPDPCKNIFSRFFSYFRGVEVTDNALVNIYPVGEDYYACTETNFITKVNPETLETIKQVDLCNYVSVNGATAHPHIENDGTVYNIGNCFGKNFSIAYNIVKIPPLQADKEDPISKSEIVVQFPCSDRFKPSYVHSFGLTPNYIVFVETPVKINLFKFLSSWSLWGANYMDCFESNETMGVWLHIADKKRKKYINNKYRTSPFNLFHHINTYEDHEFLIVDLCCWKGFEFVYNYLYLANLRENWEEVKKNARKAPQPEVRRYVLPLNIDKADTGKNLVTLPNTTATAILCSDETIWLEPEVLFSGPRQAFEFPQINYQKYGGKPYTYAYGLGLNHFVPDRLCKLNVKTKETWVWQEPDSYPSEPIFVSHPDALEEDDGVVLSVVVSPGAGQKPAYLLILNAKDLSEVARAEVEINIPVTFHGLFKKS
As to the kind of experiment: In vitro RPE65 isomerohydrolase assay with bovine RPE microsomes (Example 3). The class given is biochemical. An excerpt: In this Example, the effect of several PBN analogs on RPE65 isomerohydrolase activity was investigated in an in vitro assay. The chemical structures of the PBN analogs utilized are described herein above. Bovine RPE microsomes were used as a source of the RPE65 protein and all-trans-[^3H] retinol was a substrate for the isomerohydrolase assay. The produced 11-cis-[^3H] retinol was quantified by normal phase HPLC with flow scintillation analyzer. The inhibition of isomerohydrolase activity was dependent on the PBN analog's concentration.
FIG. 9 also illustrates the calculation of IC50 values for the two difluoro-PBN analogs. IC50 values are the concentration of the inhibitor that inhibits 50% of the enzymatic activity. Therefore, the smaller the IC50 value, the better the drug.

The test system of the next data set is Rat Retina. As to the kind of experiment: Light-induced retinal degeneration in rats, systemic (IP) nitrone; ERG and ONL histology. Here is the method:
Consistent with previous publications (1-2,5), a dose of 50 mg/kg PBN and S-PBN dissolved in saline was chosen for intraperitoneal injection in the rats in the treatment group. An equal volume of saline was injected into control rats.
A light-stress paradigm of 2,700 lux for 6 hours was used to test the effect of PBN at different time points before (0.5 hour, 3 hours, 6 hours, 12 hours, 16 hours, and 24 hours) or after (0.5 hour and 3 hours) light exposure. The effect of S-PBN was tested using the same dose and protocol of PBN at 0.5 hours before light exposure.
Electroretinography—After light exposure, rats were returned to their dim cyclic light (5-10 lux) environment for 7 days before ERG recordings were performed. Flash ERGs were recorded with the Diagnosys Espion E2 ERG System (Diagnosys, LLC, Lowell, Mass.). Rats were maintained in total darkness overnight and prepared for ERG recording under dim red light. They were anesthetized with ketamine (120 mg/kg body weight) and xylazine (6 mg/kg body weight) intramuscularly (IM). One drop of 10% (v/v) phenylephrine was applied to the cornea to dilate the pupil, and one drop of 0.5% (v/v) proparacaine HCl was applied for local anesthesia. Rats were kept on a heating pad at 37° C. during recordings. A gold electrode was placed on the cornea, a reference electrode was positioned in the mouth, and a ground electrode was placed on the foot; rats were then placed inside a Ganzfeld illuminating sphere. Responses were differentially amplified, averaged, and stored. For the assessment of rod photoreceptor function (scotopic ERG), five strobe flash stimuli were presented at flash intensities at −2.3, −1.3, 0.7, and 2.7 log cd·s/m^2. The amplitude of the a-wave was measured from the pre-stimulus baseline to the a-wave trough. The amplitude of the b-wave was measured from the trough of the a-wave to the peak of the b-wave. For the evaluation of cone function (photopic ERG), a strobe flash stimulus (3.3 log cd·s/m^2) was presented to dilated, light-adapted (5 minutes at 1.7 log cd·s/m^2) rats. The amplitude of the cone b-wave was measured from the trough of the a-wave to the peak of the b-wave.
Histology—After ERG recordings, rats were killed by carbon dioxide asphyxiation for light microscopic evaluation of retinal structure. Immediately after death, eyes were excised, placed in fixative (4% (w/v) paraformaldehyde, 2% (v/v) trichloroacetic acid, 20% (v/v) isopropyl alcohol, 2% (v/v) zinc chloride, and 72% (v/v) distilled water), and embedded in paraffin. Sections of 5 μm were cut along the vertical meridian through the optic nerve and stained with hematoxylin and eosin (H&E).
The PBN derivatives were injected intraperitoneally (IP) into albino SD rats at 50 mg/kg body weight at 0.5 hours before the start of light-damage exposure at 2,700 lux for 6 hours. After the exposure, the rats were moved to their dim cyclic room to recover for a week. Retinal damage/protection was assessed by functional analysis by ERG and structural analysis of histological sections. Dark adapted (12 hour) and Light adapted (for 2 hour) retinas were utilized as controls.

In data set [1] the test system is rhodopsin. As to the kind of experiment: Rhodopsin regeneration after bleach in rats, IP nitrone. The class given is in vivo, rat. Conditions: Rattus norvegicus; rats, 50 mg/kg IP, 2 h room light then 2.5 h dark adaptation. On the procedure:
FIG. 10 graphically illustrates the effects of three PBN analogs of rhodopsin regeneration. Rhodopsin content was measured as nmole/retina following the procedure as in Mandal et al. (J Biol. Chem. 2011. 286 (37):32491-501). After injection with PBN derivatives or vehicles (saline), rats were left in room light for 2 hours (light adapted or LA) and then moved to dark. At 2.5 hours dark adaptation (DA), retinas were harvested. DA-Control, Dark adapted (12 h) control retina without any treatment to show normal rhodopsin content.
Measurement of rhodopsin regeneration—To measure the effect of PBN on the rate of rhodopsin regeneration, dark-adapted rats were injected intraperitoneally with PBN (50 mg/kg) or PBS 0.5 hour prior to a 2 hour bleach in room light (˜400 lux). Immediately following the bleach (time=0 minutes), a group of PBN- and vehicle-treated rats were killed, and retinas were removed and snap frozen. The remaining rats were dark-adapted, and retinas were collected under dim red light at 45, 90, and 180 minutes after the bleach.
Rhodopsin measurements were performed as described previously (2,36) with slight modification. Briefly, under dim red light, each retina was homogenized in 450 μl of buffer containing 10 mM Tris-HCl (pH 7.4), 150 mM NaCl, 1 mM EDTA, 2% (w/v) octylglucoside, and 50 mM hydroxylamine. Homogenates were centrifuged at 16,000 g, and soluble lysates were scanned from 270-800 nm in a spectrophotometer (Ultrospec 3000 UV/Vis Spectrophotometer, GE Healthcare, Piscataway, N.J.). Samples were then bleached under room light for 10 minutes and scanned again. The difference spectra at 500 nm between pre- and post-bleached samples were used to determine rhodopsin content using a molar extinction coefficient of […] (37). The values were normalized to the total lysate volume, and data are presented as rhodopsin content/retina.

Data set [2] relates to rhodopsin. As to the kind of experiment: Rhodopsin regeneration after topical eye drops in mice. The data set is classed as in vivo, Balb/c mice. Here is the method: Panel A: Application scheme and harvesting of the eye. 3 h group received 2 applications and 6 h group received 3 applications. Panel B: Rhodopsin content was measured as pmole/eye. In 1 h in the dark, untreated eyes (NT-LA 1 h DA, no treatment-light adapted followed by 1 hour dark adaptation) and vehicle-treated eyes recovered 75-80% rhodopsin [dark-adapted (DA) control is 100%], whereas 3 h PBN recovered only 43% and 6 h PBN only 29%. (***P<0.0001 compared to vehicle, n=8; ##p<0.005 between 3 h and 6 h group, n=8).
An eye drop formulation was used with various absorption enhancers for topical application of PBN to mouse eyes. […] One hour dark adaptation followed by light causes 75-80% recovery of bleachable rhodopsin in the Balb/c mice (FIG. 18B, NT-LA 1 h DA). The eye drop without PBN (vehicle) had no effect on rhodopsin regeneration (FIG. 18B, vehicle).
Eye drop formulations were prepared as described in Example 7 and contained 5% or 10% of a PBN derivative. The eye drop formulations were applied to Balb/c mice by the 6 h group application scheme shown in FIG. 18A, in which the eye drops were applied at 6, 3, and 0 h before dark adaptation. The eye drops were applied to completely light-adapted mouse eyes, and the mice were then moved to the dark for 1 h to allow the regeneration of bleachable rhodopsin. One hour dark adaptation followed by light causes […] recovery of bleachable rhodopsin in untreated mice (00, No Treatment). The eye drop without any nitrones (vehicle) had no effect on rhodopsin regeneration (000, vehicle).

[3] abbreviates: 50 mg/kg IP 0.5 h before 2,700 lux 6 h, ERG flash 4.0 cd·sec/m^2 (mostly rod function).
The mark [4] stands for this setting: 50 mg/kg IP 0.5 h before 2,700 lux 6 h, ERG flash 400.0 cd·sec/m^2 (rod and cone function).
Where [5] appears, read: 50 mg/kg IP 0.5 h before 2,700 lux 6 h, NLD = 100, Saline LD = 0.
Where [6] appears, read: 50 mg/kg IP 0.5 h before 2,700 lux 6 h, histology.

By IC50 is commonly meant the concentration needed to halve the response being measured. By inhibition is commonly meant the relative decrease from the control value, in per cent. A low value points to a weak effect.

In the case of `Cc1ccc(/C=[N+](\[O-])C(C)(C)C)cc1` [Compound 4, 4-Methylphenyl t-butyl nitrone], the half-inhibitory concentration (IC50) at RPE65 isomerohydrolase (apparent IC50, bovine RPE microsomes, all-trans-[3H] retinol substrate (Table 1), read-out: IC50 Values for the Inhibition of RPE65 Isomerohydrolase Reaction) came to 100 µM. Besides, the concentration for half-maximal inhibition (IC50) on RPE65 isomerohydrolase (in vitro RPE65 isomerohydrolase IC50 values repeated in Table 7, read-out: IC50) was found to be 100 µM. For the same compound, in the data set on Rat Retina (setting [3]), the “A-Wave value at 4 cd·sec/m^2” value was found to be 126.4 and the “B-Wave value at 4 cd·sec/m^2” value is reported as 369.9. For the same compound, in the data set on Rat Retina (setting [4]), the “A-Wave value at 400 cd·sec/m^2” value is reported as 191.3 and the “B-Wave value at 400 cd·sec/m^2” value amounted to 443.9. Moreover, in the data set on Rat Retina (setting [5]), the “% Protection (A-Wave at 4 cd·sec/m^2)” value is listed as 65.9%, the “% Protection (A-Wave at 400 cd·sec/m^2)” value is reported as 63.6%, the “% Protection (B-Wave at 4 cd·sec/m^2)” value was found to be 48.1% and the “% Protection (B-Wave at 400 cd·sec/m^2)” value is reported as 54.7%. In the data set with Rat Retina (setting [6]), the “ONL Thickness (μm) Inferior retina” value stood at 36.2 ± 1.0 μm and the “ONL Thickness (μm) Superior retina” value is recorded as 35.2 ± 1.2 μm. Further, the “protection of retinal function (ERG A- and B-wave)” value in the data set with Rat Retina (50 mg/kg IP, FIGS. 11-12) is given as “protected retinal function significantly”. In the data set on Rat Retina (50 mg/kg IP, ONL histology (FIGS. 14-16)), the “protective effect on retinal photoreceptors compared with PBN” value is listed as “slightly lower than that observed for PBN”. In the data set on Rat Retina (NLD = 100, Saline LD = 0), the “% Protection (ONL, Inferior retina)” value came to 79.7% and the “% Protection (ONL, Superior retina)” value is 79.1%. In the data set with rhodopsin [1], this compound yielded an inhibition at 50 mg/kg of 54%. Further, in the data set with rhodopsin [2] (5% in eye drop at 6, 3 and 0 h before dark adaptation, LA + 1 h DA, DA control = 100), the “% of Rhodopsin recovery” value was 32.54%. Besides, the “inhibition of rhodopsin regeneration as eye drop” value with rhodopsin [2] (eye drop formulation, summary of Table 7) is “more effective in inhibiting rhodopsin regeneration than PBN”.
